Assay results: ChEMBL document CHEMBL1275597, “In vitro activity of the aminoglycoside antibiotic arbekacin against Acinetobacter baumannii-calcoaceticus isolated from war-wounded patients at Walter Reed Army Medical Center” (Antimicrob Agents Chemother, 2010)
Converted amounts (≈) assume the structure as drawn. The source made the active and inactive calls. No cut-off for these calls is given here.

How the values were obtained:
[1] = (§1) Antimicrobial activity against Acinetobacter baumannii-calcoaceticus obtained from war-wounded patient assessed as susceptible isolates; type: functional, Acinetobacter calcoaceticus/baumannii complex
[2] = Antimicrobial activity against Acinetobacter baumannii-calcoaceticus obtained from war-wounded patient; type: functional; settings: Acinetobacter calcoaceticus/baumannii complex
[3] = Cmax in war-wounded patient infected with Acinetobacter baumannii-calcoacetius at 2 to 3 mg/kg/day; type: ADME, organism-based; settings: human, in vivo
[4] = Antimicrobial activity against Acinetobacter baumannii-calcoaceticus obtained from war-wounded patient assessed as zone of inhibition at 128 ug/ml by disk diffusion method; type: functional; settings: Acinetobacter calcoaceticus/baumannii complex; read-out: IZ
[5] = tested on: Acinetobacter calcoaceticus/baumannii complex; assay: as §1; type: functional
[6] = Antimicrobial activity against Acinetobacter baumannii-calcoaceticus […] in presence of meropenem; type: functional, Acinetobacter calcoaceticus/baumannii complex
[7] = Antimicrobial activity against Acinetobacter baumannii-calcoaceticus […] in presence of imipenem; type: functional, Acinetobacter calcoaceticus/baumannii complex
[8] = tested on: Homo sapiens; assay: Cmax in war-wounded patient infected with Acinetobacter baumannii-calcoacetius at 5 to 7 mg/kg/day; type: ADME, organism-based; settings: in vivo
[9] = Antimicrobial activity against Acinetobacter baumannii-calcoaceticus obtained from war-wounded patient assessed as susceptible isolates in presence of beta-lactamase inhibitor Sulbactam; type: functional, Acinetobacter calcoaceticus/baumannii complex
[10] = tested on: Acinetobacter calcoaceticus/baumannii complex; assay: Antimicrobial activity against Acinetobacter baumannii-calcoaceticus obtained from war-wounded patient assessed as susceptible isolates by tube dilution assay; type: functional

Row | Compound | Activity [1] | also measured
1 | NCC[C@H](O)C(=O)N[C@@H]1C[C@H](N)[C@@H](O[C@H]2O[C@H](CN)[C@@H](O)[C@H](O)[C@H]2O)[C@H](O)[C@H]1O[C@H]1O[C@H](CO)[C@@H](O)[C@H](N)[C@H]1O [AMIKACIN] | 59% | 
2 | NCC[C@H](O)C(=O)N[C@@H]1C[C@H](N)[C@@H](O[C@H]2O[C@H](CN)CC[C@H]2N)[C@H](O)[C@H]1O[C@H]1O[C@H](CO)[C@@H](O)[C@H](N)[C@H]1O [ARBEKACIN] | 86.5% | MIC [2]: 2 mg/L (≈ 3.62 µM); Cmax [3]: 20 µg/mL; zone of inhibition at 128 µg/mL [4]: 13 mm
3 | COc1c(N2C[C@@H]3CCCN[C@@H]3C2)c(F)cc2c(=O)c(C(=O)O)cn(C3CC3)c12 |  | Activity [5]: inactive
4 | C[C@@H](O)[C@H]1C(=O)N2C(C(=O)O)=C(S[C@@H]3CN[C@H](C(=O)N(C)C)C3)[C@H](C)[C@H]12 [MEROPENEM] | 53.7% | fractional inhibitory concentration index (FICI) [6]: 0.5
5 | NC[C@H]1O[C@H](O[C@H]2[C@H](O)[C@@H](O[C@H]3O[C@H](CO)[C@@H](O)[C@H](N)[C@H]3O)[C@H](N)C[C@@H]2N)[C@H](N)C[C@@H]1O [TOBRAMYCIN] | 56% | 
6 | CCN1CCN(C(=O)N[C@@H](C(=O)N[C@@H]2C(=O)N3[C@@H]2SC(C)(C)[C@@H]3C(=O)O)c2ccccc2)C(=O)C1=O [PIPERACILLIN] | 9.8% | 
7 | O=C(O)c1cn(C2CC2)c2cc(N3CCNCC3)c(F)cc2c1=O [CIPROFLOXACIN] | 14.5% | 
8 | COc1c(N2CCNC(C)C2)c(F)cc2c(=O)c(C(=O)O)cn(C3CC3)c12 (stereo not drawn) [GATIFLOXACIN] | 27% | 
9 | GENTAMICIN [listing 1 of 2 here] |  | Activity [5]: 14.5%
10 | C[C@@H](O)[C@H]1C(=O)N2C(C(=O)O)=C(SCCNC=N)C[C@H]12 [IMIPENEM ANHYDROUS] | 55% | fractional inhibitory concentration index (FICI) [7]: 0.375
11 | GENTAMICIN [listing 2 of 2 here] |  | Cmax [8]: < 4 µg/mL
12 | CN(C)c1ccc(O)c2c1C[C@H]1C[C@H]3[C@H](N(C)C)C(O)=C(C(N)=O)C(=O)[C@@]3(O)C(O)=C1C2=O [MINOCYCLINE] | 92.6% | 
13 | CC1(C)S[C@@H]2[C@H](NC(=O)[C@H](N)c3ccccc3)C(=O)N2[C@H]1C(=O)O [AMPICILLIN] |  | Activity [9]: 67.3%
14 | POLYMYXIN B |  | Activity [10]: 100%
15 | CC(C)(O/N=C(\C(=O)N[C@@H]1C(=O)N2C(C(=O)[O-])=C(C[n+]3ccccc3)CS[C@H]12)c1csc(N)n1)C(=O)O [CEFTAZIDIME] | 25% | 
16 | COLISTIN |  | Activity [10]: 100%
17 | C[C@H]1COc2c(N3CCN(C)CC3)c(F)cc3c(=O)c(C(=O)O)cn1c23.C[C@H]1COc2c(N3CCN(C)CC3)c(F)cc3c(=O)c(C(=O)O)cn1c23.O [LEVOFLOXACIN] | 20.5% | 
18 | CO/N=C(\C(=O)N[C@@H]1C(=O)N2C(C(=O)[O-])=C(C[N+]3(C)CCCC3)CS[C@H]12)c1csc(N)n1 [CEFEPIME] | 32.7% | 
